# Key:
# [1] = system: peripheral blood cells positive for Ph chromosome; settings: of 18 CML patients; after five months of imatinib treatment
# Text: The remaining four were reserved to test the predictive scoring system later. Of the 22, two “learning” cases (the cases used for the construction of the prediction system described later) were in blast crisis phase and two “test” cases (the cases used for testing the correctness of the prediction system described later) were in accelerated phase.
# [2] = system: Ph chromosome-positive leukemia cells; settings: cited from earlier work
compound,measurement,setting,value
"Cc1ccc(NC(=O)c2ccc(CN3CCN(C)CC3)cc2)cc1Nc1nccc(-c2cccnc2)n1 [imatinib, 4-(4-methylpiperazin-1-ylmethyl)-N-[4-methyl-3-(4-pyridin-3-ylpyrimidin-2-ylamino)phenyl]benzamide]","patients with more than 65% of cells still positive for the Ph chromosome, non-responders",[1],six
same,adverse effects,[2]; CML patients,without severe adverse effects
same,patients in whom Ph chromosome-positive leukemia cells are completely or partially reduced,[2]; CML patients,more than 60%
same,CML patients induced into hematological complete remission,[2],around 90%
